For assay [1], the system named is ERα-dependent genes pS2, PR, Cyclin D1 and CDC2. Nature of the assay: qRT-PCR of ERα-dependent genes in MCF7 cells. Particulars: MCF7, 24 h, 1 nM E2. It counts as cell-based, human. On the procedure:
mRNA levels were analyzed after treatment of MCF7 and TamR3 cells for 24 h with the test compounds as described previously. The fold change in expression of the genes was calculated using the 2^−ΔΔCt method with GAPDH as the internal control.

The next assay has as its system ERα− MDA-MB-231 cells. The assay can be described thus: Presto Blue cell viability assay, MDA-MB-231. It counts as cell-based, human. Particulars: ERα− MDA-MB-231, 96 h.
For assay [2], the target named is T1, glucocorticoid receptor (GR) (Homo sapiens, UniProt P04150).
T1 construct: expressed in transfected cells; host or cells: PC3
T1 sequence (P04150 1-777): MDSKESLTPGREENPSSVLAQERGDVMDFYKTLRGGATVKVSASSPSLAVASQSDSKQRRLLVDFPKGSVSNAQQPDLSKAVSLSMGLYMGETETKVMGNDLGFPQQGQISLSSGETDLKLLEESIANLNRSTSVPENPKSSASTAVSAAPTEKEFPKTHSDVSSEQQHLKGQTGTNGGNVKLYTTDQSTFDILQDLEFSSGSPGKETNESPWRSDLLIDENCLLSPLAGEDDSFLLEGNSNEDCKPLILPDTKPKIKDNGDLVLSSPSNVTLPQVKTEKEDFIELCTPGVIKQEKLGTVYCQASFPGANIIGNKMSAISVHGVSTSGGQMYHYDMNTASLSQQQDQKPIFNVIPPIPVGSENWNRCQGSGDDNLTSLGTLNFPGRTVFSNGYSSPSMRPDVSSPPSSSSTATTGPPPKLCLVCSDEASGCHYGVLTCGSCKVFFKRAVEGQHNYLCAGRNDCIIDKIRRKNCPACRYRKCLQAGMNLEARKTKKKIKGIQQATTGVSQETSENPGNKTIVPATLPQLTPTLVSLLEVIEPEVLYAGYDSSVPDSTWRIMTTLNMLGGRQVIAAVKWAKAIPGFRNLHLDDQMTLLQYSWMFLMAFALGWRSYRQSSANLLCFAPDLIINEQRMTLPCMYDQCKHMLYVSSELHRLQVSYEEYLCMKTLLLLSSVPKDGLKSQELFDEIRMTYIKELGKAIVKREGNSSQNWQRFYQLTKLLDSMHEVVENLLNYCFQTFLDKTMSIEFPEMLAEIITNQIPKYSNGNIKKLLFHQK
The assay can be described thus: Luciferase reporter selectivity assay in PC3 cells, GR. To be noted: 24 h. It counts as cell-based. On the procedure: (§1) Figure 4 Further activity profile of VPC-16606. (A,B) Chromatin immunoprecipitation (ChIP) analysis of ERα binding to the pS2 enhancer, or the GAPDH promoter, in MCF7 cells. Where indicated, ERα was stimulated with 1 nM E2 or dimethyl sulfoxide (DMSO) alone, and the compound was administered at a 6 μM concentration. Sheared chromatin-protein complexes were precipitated with the ERα antibody, reverse cross-linked and analyzed by quantitative PCR. The results are normalized as fold enrichment over precipitation with a rabbit isotype control IgG antibody for each condition tested. Error bars indicate standard error of the mean (SEM) for 3 independent experiments performed in triplicates. Fold enrichment from the compound tested condition (ERα antibody) was statistically compared against DMSO + E2 with a two-tailed t-test (unpaired) *** indicates p-value <0.001. (C) Specificity of VPC-16606 was evaluated in the luciferase reporter assay. PC3 cells were transfected with plasmids expressing androgen receptor (AR), progesterone receptor (PR) or glucocorticoid receptor (GR) along with their responsive luciferase reporter constructs bearing androgen response element (ARE), progesterone response element (PRE) or glucocorticoid response element (GRE), respectively. […] Y-axis represents relative luminescence (RLU) after normalizing to constitutive renilla reporter. […]

Assay [3] concerns the target T2, progesterone receptor (PR) (Homo sapiens, UniProt P06401).
T2 construct: expressed in transfected cells; host or cells: PC3
T2 sequence (P06401 1-933): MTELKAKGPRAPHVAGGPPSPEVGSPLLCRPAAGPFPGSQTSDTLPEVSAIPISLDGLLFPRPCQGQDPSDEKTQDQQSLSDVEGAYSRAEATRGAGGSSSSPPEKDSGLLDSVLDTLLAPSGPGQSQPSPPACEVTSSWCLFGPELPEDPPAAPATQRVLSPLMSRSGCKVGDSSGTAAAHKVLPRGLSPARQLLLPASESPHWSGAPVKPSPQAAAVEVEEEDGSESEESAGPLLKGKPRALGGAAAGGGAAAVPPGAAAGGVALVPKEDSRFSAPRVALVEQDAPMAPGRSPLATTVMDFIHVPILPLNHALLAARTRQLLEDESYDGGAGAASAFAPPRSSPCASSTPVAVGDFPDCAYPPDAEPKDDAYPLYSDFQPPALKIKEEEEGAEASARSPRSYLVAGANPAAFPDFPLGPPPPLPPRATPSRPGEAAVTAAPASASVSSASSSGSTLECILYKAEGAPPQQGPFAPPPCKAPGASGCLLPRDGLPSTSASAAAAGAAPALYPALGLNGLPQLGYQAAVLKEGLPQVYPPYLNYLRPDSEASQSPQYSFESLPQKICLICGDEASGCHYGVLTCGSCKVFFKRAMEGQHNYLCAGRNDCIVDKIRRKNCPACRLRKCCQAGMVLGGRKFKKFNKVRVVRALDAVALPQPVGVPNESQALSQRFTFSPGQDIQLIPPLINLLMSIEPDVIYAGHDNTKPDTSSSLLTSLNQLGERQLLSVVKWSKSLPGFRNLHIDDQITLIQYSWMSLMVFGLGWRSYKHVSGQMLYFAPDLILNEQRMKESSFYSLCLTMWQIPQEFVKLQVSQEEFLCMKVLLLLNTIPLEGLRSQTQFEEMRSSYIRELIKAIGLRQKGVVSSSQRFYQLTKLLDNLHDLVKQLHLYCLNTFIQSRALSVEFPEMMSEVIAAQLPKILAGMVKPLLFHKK
Nature of the assay: Luciferase reporter selectivity assay in PC3 cells, PR. It counts as cell-based. To be noted: 24 h. The procedure: as §1

Regarding `CC(=O)N(/N=C1\Sc2c(C)cccc2C1=O)c1ccccc1Cl` [VPC-16606], the “mRNA levels of ERα-dependent genes pS2, PR, Cyclin D1 and CDC2” value in assay [1] is recorded as “significantly downregulates”. For the same compound, in the assay on ERα− MDA-MB-231 cells, the “Cell growth (Presto Blue viability)” value is “without any effect”. Moreover, the “Effect on GR activity (luciferase)” value in assay [2] (50 µM) is reported as “some effect”; in assay [2] (doses up to 25 µM), “does not affect the activity”. For the same compound, the figures for the “Effect on PR activity (luciferase)” value in assay [3] (50 µM) and in assay [3] (doses up to 25 µM) were “some effect” and “does not affect the activity”, respectively.

The values are drawn from article PMC5855801, “Benzothiophenone Derivatives Targeting Mutant Forms of Estrogen Receptor-α in Hormone-Resistant Breast Cancers” (International Journal of Molecular Sciences, 2018).
